Our source for the T/C values is PubChem BioAssay AID330 (DTP/NCI, 2004).

Where “and” joins values, the source holds several entries; their conditions need not be identical. Identical values can stand only once. Toxic doses and inconclusive results are not listed.

In the experiment the test system is P388 leukemia ip, CD2F1 mice, survival T/C. Description: NCI In Vivo Anticancer Drug Screen. Data for tumor model P388 Leukemia (intraperitoneal) in CD2F1 (CDF1) mice. The settings on record: endpoint: median survival time, higher = longer survival. The gist of the method:
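Mice carrying the transplanted tumor received test compound or vehicle. Survival was recorded in each group, and the value is the treated-group measurement divided by that of the vehicle-treated control group.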

Where [1] appears, read: dose: 50.0 mg/kg/injection, schedule: Q01DX005 (ip), vehicle: saline with Tween-80.
Where [2] appears, read: dose: 100.0 mg/kg/injection, schedule: Q01DX005 (ip), vehicle: saline with Tween-80.

Consider `C=C1C(=O)C23CC1CC(O)C2C12COC(O)C1C(C)(C)CCC2OC3=O` (stereo not given), for which the T/C is 108 % of control (dose: 1.25 mg/kg/injection, schedule: Q01DX009 (ip), vehicle: saline with Tween-80); 99 % of control (dose: 2.5 mg/kg/injection, schedule: Q01DX009 (ip), vehicle: saline with Tween-80); 102 % of control and 120 % of control (dose: 5.0 mg/kg/injection, schedule: Q01DX009 (ip), vehicle: saline with Tween-80); 106 % of control and 115 % of control (dose: 10.0 mg/kg/injection, schedule: Q01DX009 (ip), vehicle: saline with Tween-80); 116 % of control and 118 % of control (dose: 20.0 mg/kg/injection, schedule: Q01DX009 (ip), vehicle: saline with Tween-80); 118 % of control and 124 % of control (dose: 40.0 mg/kg/injection, schedule: Q01DX009 (ip), vehicle: saline with Tween-80). Further, for the setting “dose: 80.0 mg/kg/injection, schedule: Q01DX009 (ip), vehicle: saline with Tween-80”, the T/C was 89 % of control.

On to `COc1cc([N+](=O)[O-])c(S(=O)(=O)O)cc1N=N/C=N/Nc1cc(S(=O)(=O)O)c([N+](=O)[O-])cc1OC`, for which the T/C by setting is: (dose: 50.0 mg/kg/injection, schedule: Q01DX005 (ip), vehicle: Klucel (hydroxypropylcellulose) (HPC)) 118 % of control; (dose: 100.0 mg/kg/injection, schedule: Q01DX005 (ip), vehicle: Klucel (hydroxypropylcellulose) (HPC)) 110 % of control; (dose: 200.0 mg/kg/injection, schedule: Q01DX005 (ip), vehicle: Klucel (hydroxypropylcellulose) (HPC)) 108 % of control.

Consider `O=S(=O)(Nc1ncccn1)c1ccc(NCc2c3ccccc3nc3cc(Cl)ccc23)cc1`, for which the T/C (dose: 60.0 mg/kg/injection, schedule: Q01DX005 (ip), vehicle: saline with Tween-80) is 87 % of control; the T/C (dose: 120.0 mg/kg/injection, schedule: Q01DX005 (ip), vehicle: saline with Tween-80) is 86 % of control; the T/C (dose: 240.0 mg/kg/injection, schedule: Q01DX005 (ip), vehicle: saline with Tween-80) was 91 % of control.

For the compound `CN(C)C1C2(C)CCC(C2)C1(C)C` (stereo not given), the T/C runs as follows: under setting [1], 103 % of control; under setting [2], 102 % of control.

Turning to `[O-][N+](O)=C1c2ccccc2-c2ccccc21`, the T/C (dose: 100.0 mg/kg/injection, schedule: Q04DX003 (ip), vehicle: saline) was 100 % of control; the T/C (dose: 200.0 mg/kg/injection, schedule: Q04DX003 (ip), vehicle: saline) was 103 % of control; the T/C (dose: 400.0 mg/kg/injection, schedule: Q04DX003 (ip), vehicle: saline) is 102 % of control.

Take `CN1CCN(c2ccncc2S(=O)(=O)N2CCCC2)CC1`: the T/C was 107 % of control (dose: 50.0 mg/kg/injection, schedule: Q01DX009 (ip), vehicle: saline) and 104 % of control (dose: 100.0 mg/kg/injection, schedule: Q01DX009 (ip), vehicle: saline).

Regarding `CC1=NN(c2ccc(Cl)cc2)C(=O)/C1=C\c1c(C)[nH]n(-c2ccc(Cl)cc2)c1=O`, the T/C by setting is: under setting [1], 110 % of control; under setting [2], 101 % of control; (dose: 200.0 mg/kg/injection, schedule: Q01DX005 (ip), vehicle: saline with Tween-80) 96 % of control.

For `[N-]=[N+]=CC(=O)CCC(N)C(=O)O` (stereo not given), the T/C was 121 % of control (dose: 0.04 mg/kg/injection, schedule: Q01DX009 (ip), vehicle: saline); 158 % of control (dose: 0.05 mg/kg/injection, schedule: Q01DX009 (ip), vehicle: saline); 118 % of control (dose: 0.08 mg/kg/injection, schedule: Q01DX005 (ip), vehicle: saline); 109 % of control (dose: 0.08 mg/kg/injection, schedule: Q01DX005 (iv), vehicle: saline); 155 % of control (dose: 0.08 mg/kg/injection, schedule: Q01DX009 (ip), vehicle: saline); 178 % of control (dose: 0.1 mg/kg/injection, schedule: Q01DX009 (ip), vehicle: saline). Further, the T/C is 121 % of control (dose: 0.15 mg/kg/injection, schedule: Q01DX005 (ip), vehicle: saline); 110 % of control (dose: 0.15 mg/kg/injection, schedule: Q01DX005 (iv), vehicle: saline); 161 % of control and 171 % of control (dose: 0.15 mg/kg/injection, schedule: Q01DX009 (ip), vehicle: saline); 206 % of control (dose: 0.2 mg/kg/injection, schedule: Q01DX009 (ip), vehicle: saline); 112 % of control (dose: 0.3 mg/kg/injection, schedule: Q01DX005 (iv), vehicle: saline); 103 % of control and 105 % of control (dose: 0.3 mg/kg/injection, schedule: Q01DX009 (ip), vehicle: saline). For the same compound, the T/C is 235 % of control (dose: 0.4 mg/kg/injection, schedule: Q01DX009 (ip), vehicle: saline); 153 % of control (dose: 0.6 mg/kg/injection, schedule: Q01DX005 (ip), vehicle: saline); 87 % of control (dose: 0.6 mg/kg/injection, schedule: Q01DX009 (ip), vehicle: saline); 94 % of control (dose: 0.8 mg/kg/injection, schedule: Q01DX009 (ip), vehicle: saline); 160 % of control (dose: 1.0 mg/kg/injection, schedule: Q04DX003 (ip), vehicle: saline); 158 % of control (dose: 2.0 mg/kg/injection, schedule: Q04DX003 (ip), vehicle: saline). Also, the T/C is, setting by setting: (dose: 4.0 mg/kg/injection, schedule: Q04DX003 (ip), vehicle: saline) 180 % of control; (dose: 8.0 mg/kg/injection, schedule: Q04DX003 (ip), vehicle: saline) 202 % of control; (dose: 16.0 mg/kg/injection, schedule: Q04DX003 (ip), vehicle: saline) 247 % of control; (dose: 54.0 micrograms/kg/injection, schedule: Q01DX009 (ip), vehicle: saline) 151 % of control and 158 % of control; (dose: 62.5 micrograms/kg/injection, schedule: Q01DX009 (ip), vehicle: saline) 160 % of control; (dose: 90.0 micrograms/kg/injection, schedule: Q01DX009 (ip), vehicle: saline) 166 % of control and 182 % of control. The T/C reads like this: (dose: 125.0 micrograms/kg/injection, schedule: Q01DX009 (ip), vehicle: saline) 190 % of control; (dose: 150.0 micrograms/kg/injection, schedule: Q01DX009 (ip), vehicle: saline) 188 % of control and 192 % of control; (dose: 250.0 micrograms/kg/injection, schedule: Q01DX009 (ip), vehicle: saline) 109 % of control and 208 % of control and 236 % of control; (dose: 417.0 micrograms/kg/injection, schedule: Q01DX009 (ip), vehicle: saline) 221 % of control and 90 % of control; (dose: 500.0 micrograms/kg/injection, schedule: Q01DX009 (ip), vehicle: saline) 94 % of control.

Turning to `COC1NC(=S)N(C2CCCCC2)C1(C)C` (stereo not given), the T/C runs as follows: (dose: 50.0 mg/kg/injection, schedule: Q01DX009 (ip), vehicle: suspension in saline) 97 % of control; (dose: 100.0 mg/kg/injection, schedule: Q01DX009 (ip), vehicle: suspension in saline) 97 % of control; (dose: 200.0 mg/kg/injection, schedule: Q01DX009 (ip), vehicle: suspension in saline) 100 % of control.

On to `CC(CN1CC(=O)NC(=O)C1)N1CC(=O)NC(=O)C1` (stereo not given), for which the T/C is, setting by setting: (dose: 6.48 mg/kg/injection, schedule: Q04DX002 (ip), vehicle: saline) 117 % of control; (dose: 50.0 mg/kg/injection, schedule: Q04DX002 (ip), vehicle: Klucel (hydroxypropylcellulose) (HPC)) 123 % of control; (dose: 64.8 mg/kg/injection, schedule: Q04DX003 (ip), vehicle: saline) 119 % of control; (dose: 77.8 mg/kg/injection, schedule: Q04DX002 (ip), vehicle: saline with Tween-80) 118 % of control; (dose: 180.0 mg/kg/injection, schedule: Q04DX002 (ip), vehicle: saline) 156 % of control; (dose: 180.0 mg/kg/injection, schedule: Q04DX003 (ip), vehicle: saline) 161 % of control. In addition, the T/C was 153 % of control and 163 % of control (dose: 200.0 mg/kg/injection, schedule: Q04DX002 (ip), vehicle: Klucel (hydroxypropylcellulose) (HPC)); 152 % of control (dose: 216.0 mg/kg/injection, schedule: Q04DX002 (ip), vehicle: saline with Tween-80); 174 % of control (dose: 300.0 mg/kg/injection, schedule: Q04DX002 (ip), vehicle: saline); 214 % of control and 217 % of control (dose: 300.0 mg/kg/injection, schedule: Q04DX003 (ip), vehicle: saline); 195 % of control (dose: 360.0 mg/kg/injection, schedule: Q04DX002 (ip), vehicle: saline with Tween-80); 223 % of control and 94 % of control (dose: 400.0 mg/kg/injection, schedule: Q04DX002 (ip), vehicle: Klucel (hydroxypropylcellulose) (HPC)). The T/C (dose: 500.0 mg/kg/injection, schedule: Q04DX002 (ip), vehicle: saline) is 100 % of control; the T/C (dose: 500.0 mg/kg/injection, schedule: Q04DX003 (ip), vehicle: saline) was 118 % of control and 219 % of control; the T/C (dose: 600.0 mg/kg/injection, schedule: Q04DX002 (ip), vehicle: saline with Tween-80) is 213 % of control.
